Results: patent publication US10357577B2, “Bacterial nitroreductase enzymes and methods relating thereto” (AUCKLAND UNISERVICES LIMITED, priority 2010, dated 2019)

Legend:
[1] = test system: HCT116 cells expressing E. coli NfsA; type: cell-based, human; conditions: 18 hrs exposure, 5 days regrowth; IC50 of WT versus NTR-expressing cells
Description: (§1) FIGS. 10 (B) and 10 (C) illustrates the results of evaluation of 2-nitroimidazole clinical imaging candidates with E. coli and non-E. coli NTRs. Stably-expressing cells were treated with varying concentration of 2-nitroimidazole prodrugs diluted in αMEM+5% FCS+P/S. Cells were exposed to prodrug for 18 hrs, washed and left to regrow for 5 days. IC50 was determined as the concentration of prodrug required to inhibit cell growth by 50% of untreated controls. IC50 values are mean for ≥2 independent experiments. WT:NTR ratio-ratio of IC50 means from WT cells versus NTR-expressing cell lines.
as §1, with “FIG. 21” for “FIGS. 10 (B) and 10 (C)”, “antiproliferative activity (IC50 value)” for “the results”, “prodrug” for “evaluation of 2-nitroimidazole clinical imaging”, “nitroreductases.” for “NTRs.”, “prodrug” for “2-nitroimidazole prodrugs”, “ratio-interexperimental ratio” for “ratio-ratio”
Isolated NTR gene sequences were subject to PCR and introduced in the bicistronic plasmid F579 via Gateway cloning (Invitrogen) as described by Prosser et al. (2010, Biochem Pharmacol, 79, 678-687). Stably transfected cell lines were created by transfection of the relevant plasmid using FuGENE 6 Transfection Reagent (Roche). Transfected cell populations were maintained by passage in puromycin
Cells were passaged in alpha-Minimal Essential Media, (αMEM; Gibco) supplemented with 5% FBS, (GIBCO NZ) without antibiotics. Cell were passaged for <3 months from frozen stocks and confirmed Mycoplasma free (PCR-ELISA; Roche Diagnostics). Cells were aliquoted into the 96-well plate (100 μL/well) and cells were left to attach (≥4 hrs). […] Plates were read on an ELx 808 Absorbance Microplate Reader (Bio-Tek Instruments). Absorbance was measured at 490 nm and 450 nm (final absorbance 490-450). […]

[2] = test system: HCT-116 cells expressing human cytochrome P450 reductase (CYPOR); experiment: Flow cytometry of EF5 retention in vitro; type: cell-based; conditions: increasing EF5 concentrations, oxic, monolayer
Description: In vitro: 1×10^6 cells were drug treated (EF5 or PIMO) for 1-2 hrs, harvested by trypsinisation, fixed with 4% buffered PFA (pH 7.4, 1 hr). In vivo: Tumour xenograft cells were isolated by enzymatic dissociation (2.5 mg/ml pronase, 1 mg/ml collagenase and 0.2 mg/ml DNAse) and immediately fixed with 4% buffered PFA (pH 7.4, 1 hr). and transferred to 70% ethanol (−20° C., overnight). Cells were resuspended in 1% BSA/PBS and permeabilised with 0.2% Triton X-100 (30 min, RT), blocked in 10% BSA/PBS (30 min, RT) and resuspended in primary antibody for 2 hr (37° C.). The primary antibody was either anti-EF5 mouse monoclonal (ELK 3.51) conjugated with CY5 or Alexa-488 diluted to 100 μg/ml in blocking buffer (according to instruction in Koch C., 2008, Rad Res, 169 (6): 677-688) or Hypoxyprobe-1 (Chemicon Int) mouse monoclonal anti-pimonidazole antibody (clone 4.3.11.3) conjugated with FITC and diluted 1:100 in blocking buffer. Cells were washed in blocking buffer and resuspended in blocking buffer containing 100 μg/ml RNAase and analysed using a Becton Dickinson FACscan flow cytometer (MA, USA) with Cell Quest software using forward scatter and side scatter to gate out cell debris and tumour cells. Integrated fluorescence measurements were recorded for 30,000 single non-debris events.

[3] = test system: nfsA-expressing cells in mixed HCT116 xenografts; experiment: Immunohistochemical detection of EF5 binding in tumour xenograft sections; type: in vivo, mice; conditions: constant exposure time 0.5 s
Description: FIG. 16 (A) illustrates immunohistochemical detection of EF5 binding in human tumour xenografts harbouring 0%, 3%, 12% or 20% HCT-116^nfsA expressing cells. FIG. 16 (A) further illustrates Fluorescent microscope pictures of tumour sections, and FIG. 16 (B) illustrates flow cytometry histograms of EF5/CY5 fluorescence to confirm % NfsA expressing cells of individual tumour.
In vivo: mice were treated with 60 mg/kg EF5 (ip) and left for 24 hrs. Tumour tissue was excised, fixed in 10% formalin dissolved in PBS (48 h), transferred to 70% ethanol and embedded in paraffin. Sections (5 μm) were cut, mounted onto poly-L-lysine coated glass slides and heat fixed for 1 h at 60° C. Sections were dewaxed, rehydrated, washed in Milli-Q water and then rinsed in 0.01 M Tris buffered saline (TBS, pH 7.4). Antigen retrieval was achieved by boiling samples in 10 mM sodium citrate buffer pH 6 for 25 min. Sections were washed with TBS containing 0.1% Tween-20 (TBS-T) and blocked with 1% mouse serum in TBS. After rinsing, the samples were incubated for 2 hr at room temperature with 100 μg/ml anti-EF5 (Alexa-488) primary antibody diluted in PBS containing 0.2% Tween-20. After rinsing in with TBS-T the coverslips were mounted with Prolong Gold antifade (Invitrogen) and sealed with nail varnish. […] Images were analysed and overlaid using Adobe Photoshop software (Adobe Photoshop 4.0).

SMILES: O=C(Cn1ccnc1[N+](=O)[O-])NCC(F)(F)C(F)(F)F [EF5, 2-(2-nitro-1H-imidazol-1-yl)-N-(2,2,3,3,3-pentafluoropropyl)acetamide]
- WT:NTR ratio (maximum growth inhibitory effect) [1]: 1600 fold
- activity towards EF5, dose-response (in words) [2]: minimal activity
- EF5 retention versus hypoxic activation in HCT-116 parental cells (in words) [3]: clearly superior
